From patent US8513380B2, “Peptides for binding fibrinogen and fibrin” (Georgia Tech Research Corporation, priority 2009, dated 2013)
Like-named read-outs stand apart in the source and are kept apart here. Where a SMILES comes first, the peptide text is derived from it.

How the values were obtained:
fibrinogen fragment D = target: T1, fibrinogen fragment D (Homo sapiens, UniProt P02675+P02679); assay: SPR binding kinetics of knob 'A' peptides on immobilized fibrinogen fragment D; settings: for kon / koff: Langmuir 1:1 model; for kon: read-out: ka, association rate; for koff: read-out: kd, dissociation rate; for Kd: heterogeneous ligand model, KD = kd/ka
T1 construct: Fibrinogen fragment D, comprising the C-terminal polymerization pockets of fibrinogen (i.e. D-domain) without the N-terminal knobs; purchased Enzyme Research Laboratories FIB3
T1 sequence (P02679 89-432 limits assumed): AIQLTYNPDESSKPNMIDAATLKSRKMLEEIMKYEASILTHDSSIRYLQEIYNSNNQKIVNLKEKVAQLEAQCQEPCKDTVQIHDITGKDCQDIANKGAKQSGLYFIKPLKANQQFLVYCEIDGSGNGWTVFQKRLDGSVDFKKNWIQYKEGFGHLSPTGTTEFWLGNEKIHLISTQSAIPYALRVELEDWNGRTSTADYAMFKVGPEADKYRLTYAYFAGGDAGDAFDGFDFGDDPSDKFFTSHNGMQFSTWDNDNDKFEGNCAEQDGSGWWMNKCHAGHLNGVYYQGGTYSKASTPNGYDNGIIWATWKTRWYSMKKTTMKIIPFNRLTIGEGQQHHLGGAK
T1 sequence (P02675 164-491 limits assumed): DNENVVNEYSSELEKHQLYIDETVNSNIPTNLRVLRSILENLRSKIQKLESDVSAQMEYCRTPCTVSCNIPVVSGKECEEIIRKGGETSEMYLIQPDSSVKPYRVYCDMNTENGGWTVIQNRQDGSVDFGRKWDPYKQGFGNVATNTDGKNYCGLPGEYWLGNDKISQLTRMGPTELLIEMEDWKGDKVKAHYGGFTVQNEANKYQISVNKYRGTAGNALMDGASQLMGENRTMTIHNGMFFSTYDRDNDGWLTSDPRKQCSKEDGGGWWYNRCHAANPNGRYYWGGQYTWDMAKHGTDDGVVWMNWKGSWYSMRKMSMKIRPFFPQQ
T1 sequence (P02671 124-216 partner limits assumed): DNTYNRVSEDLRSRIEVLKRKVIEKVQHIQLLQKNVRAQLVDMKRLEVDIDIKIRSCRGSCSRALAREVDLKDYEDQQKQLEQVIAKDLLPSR
Procedure: Human fibrinogen (Enzyme Research Laboratories, South Bend, Ind.) at 2 mg/mL was digested with 0.1 U/mL human plasmin (ERL) in HEPES+CaCl2 buffer (150 mM NaCl, 5 mM CaCl2, 25 mM HEPES; pH 7.4) overnight at room temperature. Fragment D was isolated as previously described, with slight modifications (Kostelansky M S, et al. Biochemistry. 2002; 41(40):12124-12132). Briefly, the plasmin-digested fibrinogen and GPRPAA (SEQ ID NO:10) beads were incubated for 30 min, with occasional agitation. The unbound proteins and protein fragments were removed with excessive washing with HEPES+CaCl2 buffer. Fragment D was eluted with 1M sodium bromide and 50 mM sodium acetate (pH 5.3). Eluted samples were pooled together and exchanged back into HEPES+CaCl2 buffer using a centrifugal filter (MWCO 10,000). Fragment D was verified by SDS-PAGE and stored at −80° C. until use.
The Biacore 2000 (Biacore Lifesciences, GE Healthcare, Pittsburgh, Pa.) was used investigate kinetic binding constants (ka and kd) of knob ‘A’ peptide variants for fibrinogen fragment D. Briefly, fragment D was covalently immobilized to gold-coated SPR sensor chips via self-assembled monolayer (SAM) surface chemistry in order to generate a non-fouling surface with a controlled density of reactive carboxylic acid groups. Mixed SAMs were generated on gold-coated chips as described previously (Petrie T A, et al. Biomaterials. 2006; 27(31):5459-5470) by incubating with a 1 mM mixture of tri(ethylene glycol)-terminated alkanethiols (HS-(CH2)11—(OCH2CH2)3—OH; EG3; ProChimia, Poland) and carboxylic acid-terminated alkanethiols (HS-(CH2)11—(OCH2CH2)6—OCH2COOH; EG6-COOH) for 4 hrs. Upon loading the sensor chip into the Biacore 2000, the EG6-COOH in all four flow cells was activated by flowing 200 mM 1-ethyl-3-(3-dimethylaminopropyl) carbodiimide (EDC; Sigma Aldrich, St. Louis, Mo.) and 50 mM N-hydroxysuccinimide (NHS; Sigma Aldrich) (5 μL/min for 10 min). Immediately following activation, fragment D was immobilized in three flow cells (5 μL/min for 10 min) to achieve 1800-2000 resonance units (RU; 1RU˜1 pg/mm^2). Unreacted NHS groups were quenched in all four flow cells (three sample cells and one reference cell) with 20 mM ethanolamine ([…] for 10 min). Upon stabilization of the baseline signal, kinetic binding experiments were run in duplicate with the peptide variants as the flow analytes. Five varying concentrations for each peptide (0.94 μM to 150 μM) were flowed at 25 μL/min for 4 min immediately followed by a 10 min dissociation phase. Between each run, the surface was regenerated with 1M sodium bromide and 50 mM sodium acetate (pH 6.0). SPR experiments were performed three times with varying peptide injection order to rule out binding trends associated with injection sequence. Peptide solutions were incubated with tris(2-carboxyethyl)phosphine (TCEP) immobilized on agarose beads (Thermo Fisher Scientific, Inc; Rockland, Ill.) to ensure reduction of any disulfide bonds between C-terminal cysteines.
SPR sensorgrams were analyzed with the aid of Scrubber 2 and ClampXP software (Center for Biomolecular Interactions Analysis, University of Utah) (Morton T A, et al. Methods Enzymol. 1998; 295:268-294; Morton T A, et al. Anal Biochem. 1995; 227(1):176-185; Myszka D G, et al. Trends Biochem Sci. 1998; 23(4):149-150). Prior to analysis, all sensorgrams were inspected for abnormalities (i.e. baseline drift, air spikes, or irregular deviations) and excluded. Reference cell responses were subtracted from corresponding active response curves. Double-referenced curves were acquired by further subtracting the reference cell blank buffer injections from each reference-subtracted response curve (Myszka D G. Mol. Recognit. 1999; 12(5):279-284). All double-referenced curves were normalized by the molecular weight of each peptide and multiplied by 1000 to account for minor variations in response due to molecular weight. The resulting curves were then analyzed and fitted to the kinetic models. […]

fibrinogen = target: T2, fibrinogen (Homo sapiens, UniProt P02675+P02679); assay: ELISA specificity assay: soluble Gxxx tetrapeptides competing with immobilized GPRP-FnIII9-10-C; format: binding; settings: tetrapeptide in 10^2- to 10^4-fold molar excess; one-hour pre-incubation
T2 sequence (P02679 27-437 isoform P02679-2 limits assumed): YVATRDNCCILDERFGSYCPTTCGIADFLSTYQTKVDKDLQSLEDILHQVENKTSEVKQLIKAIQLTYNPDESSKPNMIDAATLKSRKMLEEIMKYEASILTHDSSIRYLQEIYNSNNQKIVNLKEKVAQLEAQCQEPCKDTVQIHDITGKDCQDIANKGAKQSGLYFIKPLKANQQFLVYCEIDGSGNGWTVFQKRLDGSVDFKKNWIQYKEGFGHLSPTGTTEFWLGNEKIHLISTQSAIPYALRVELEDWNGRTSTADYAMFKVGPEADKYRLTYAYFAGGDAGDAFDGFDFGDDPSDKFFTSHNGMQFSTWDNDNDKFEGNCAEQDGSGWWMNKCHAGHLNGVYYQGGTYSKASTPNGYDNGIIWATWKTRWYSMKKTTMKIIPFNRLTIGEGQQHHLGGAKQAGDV
T2 sequence (P02675 31-491): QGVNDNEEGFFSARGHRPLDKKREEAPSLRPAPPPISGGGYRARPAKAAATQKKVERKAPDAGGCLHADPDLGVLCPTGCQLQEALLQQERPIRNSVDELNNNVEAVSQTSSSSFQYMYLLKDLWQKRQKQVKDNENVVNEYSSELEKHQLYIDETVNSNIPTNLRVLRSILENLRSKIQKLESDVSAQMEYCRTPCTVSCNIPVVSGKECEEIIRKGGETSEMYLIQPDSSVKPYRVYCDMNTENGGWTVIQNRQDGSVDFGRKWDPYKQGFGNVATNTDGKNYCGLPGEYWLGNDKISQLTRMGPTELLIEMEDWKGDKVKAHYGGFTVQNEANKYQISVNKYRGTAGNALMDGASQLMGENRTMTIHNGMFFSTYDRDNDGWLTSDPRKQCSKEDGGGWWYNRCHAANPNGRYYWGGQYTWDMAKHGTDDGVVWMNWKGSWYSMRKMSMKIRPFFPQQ
T2 sequence (P02671 20-629 partner limits assumed): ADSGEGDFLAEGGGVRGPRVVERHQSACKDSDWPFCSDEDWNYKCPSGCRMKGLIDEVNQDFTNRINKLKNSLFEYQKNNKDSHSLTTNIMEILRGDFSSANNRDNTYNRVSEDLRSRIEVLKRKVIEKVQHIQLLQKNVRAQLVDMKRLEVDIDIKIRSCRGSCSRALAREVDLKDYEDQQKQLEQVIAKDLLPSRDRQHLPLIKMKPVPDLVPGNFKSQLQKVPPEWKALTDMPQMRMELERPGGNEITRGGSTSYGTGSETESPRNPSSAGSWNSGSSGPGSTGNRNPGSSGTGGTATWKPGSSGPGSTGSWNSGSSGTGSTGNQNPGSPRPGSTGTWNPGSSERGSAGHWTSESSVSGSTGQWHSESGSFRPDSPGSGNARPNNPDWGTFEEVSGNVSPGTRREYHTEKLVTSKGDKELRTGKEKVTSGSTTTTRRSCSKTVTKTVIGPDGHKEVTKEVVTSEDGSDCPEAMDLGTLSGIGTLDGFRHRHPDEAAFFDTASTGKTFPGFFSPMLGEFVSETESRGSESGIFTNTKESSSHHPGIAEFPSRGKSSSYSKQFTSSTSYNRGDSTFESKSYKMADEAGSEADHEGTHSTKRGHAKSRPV
Procedure: A modified ELISA technique was used to establish the affinity of fibrinogen for the various Gxxx-FnIII9-10-C (SEQ ID NO:20) proteins covalently immobilized on maleimide-activated plates via their C-terminal cysteines. Sulfhydryl-containing proteins/peptides were added to pre-blocked maleimide-activated 96-well plates (Pierce, Thermo Scientific, Rockford, Ill.) at 10 μg/mL in conjugation buffer (CB) comprising 150 mM NaCl, 100 mM phosphate, 10 mM EDTA, pH 7.2, with attachment occurring via maleimide-sulfhydryl (thioether) linkages. TCEP (1 mM) was added to maintain sulfhydryl groups in the reduced form. Following, unreacted maleimide groups were quenched with 20 μg/mL cysteine in CB. Human fibrinogen (25 μg/mL) was incubated with the substrates and unbound protein removed by washing. Bound fibrinogen was detected using HRP-conjugated goat anti-fibrinogen antibody (MP Biomedicals #55239) and 1-Step™ Ultra TMB-ELISA (Pierce). The TMB reaction was quenched with 1 M H2SO4 before measuring the Abs450 nm using the SPECTRAMAX® M2 (Molecular Devices, Sunnyvale, Calif.). All intervening wash steps were conducted using washing buffer (WB) comprising 150 mM NaCl, 100 mM phosphate, 0.05% Tween-20, pH 7.2; all binding steps were conducted using binding buffer (BB) comprising PBS+1% BSA. For basic affinity assays, the concentration of the fusion proteins was varied. For specificity assays, varying concentrations of Gxxx (SEQ ID NO:20) tetrapeptides (Genscript, Piscataway, N.J.) were added to the fibrinogen solution during incubation with the covalently immobilized proteins.
The tetrapeptides GPRV (SEQ ID NO:2) and GHRP (SEQ ID NO:3) are also known to bind fibrinogen via knob:pocket interactions, albeit with reduced affinities (Laudano A P, et al. Biochemistry 1980, 19(5):1013-1019).

| Compound | kon (fibrinogen fragment D) [M⁻¹ s⁻¹] | koff (fibrinogen fragment D) [s⁻¹] | Kd (fibrinogen fragment D; site 1, read-out: KD1) [µM] | Kd (fibrinogen fragment D; site 2, read-out: KD2) [µM] | competition with immobilized GPRP-FnIII9-10-C for binding to fibrinogen (fibrinogen) | SPR binding response (in words) (fibrinogen fragment D) |
| --- | --- | --- | --- | --- | --- | --- |
| C[C@H](NC(=O)[C@H](C)NC(=O)[C@@H]1CCCN1C(=O)[C@H](CCCNC(=N)N)NC(=O)[C@@H]1CCCN1C(=O)CN)C(=O)N[C@@H](CS)C(=O)O [GPRPAAC] (H-GPRPAAC-OH) | 1140 ± 30 | 0.0117 ± 0.00017 | 4.53 | 8.52 |  |  |
| C[C@H](NC(=O)[C@@H]1CCCN1C(=O)[C@H](Cc1ccccc1)NC(=O)[C@@H]1CCCN1C(=O)[C@H](CCCNC(=N)N)NC(=O)[C@@H]1CCCN1C(=O)CN)C(=O)N[C@@H](CS)C(=O)O [GPRPFPAC] (H-GPRPFPAC-OH) | 12500 ± 260 | 0.00727 ± 8e-05 | 3.73 | 1.08 |  |  |
| N=C(N)NCCC[C@H](NC(=O)[C@H](CCC(=O)O)NC(=O)[C@@H]1CCCN1C(=O)[C@@H]1CCCN1C(=O)[C@H](CCCNC(=N)N)NC(=O)[C@@H]1CCCN1C(=O)CN)C(=O)N[C@@H](CS)C(=O)O [GPRPPERC] (H-GPRPPERC-OH) | 1290 ± 30 | 0.00992 ± 0.00013 | 18.2 | 2.93 |  |  |
| CC(C)[C@H](NC(=O)[C@H](CCCNC(=N)N)NC(=O)[C@@H]1CCCN1C(=O)CN)C(=O)N[C@H](C(=O)N[C@@H](C)C(=O)N[C@@H](C)C(=O)N[C@@H](CS)C(=O)O)C(C)C [GPRVVAAC] (H-GPRVVAAC-OH) | 90 ± 1 | 0.01073 ± 4e-05 | 48.5 | 25 |  |  |
| CC(C)[C@H](NC(=O)[C@H](CCCNC(=N)N)NC(=O)[C@@H]1CCCN1C(=O)CN)C(=O)N[C@H](C(=O)N[C@@H](CCC(=O)O)C(=O)N[C@@H](CCCNC(=N)N)C(=O)N[C@@H](CS)C(=O)O)C(C)C [GPRVVERC] (H-GPRVVERC-OH) | 280 ± 4 | 0.02343 ± 0.00023 | 53.9 | 15.7 |  |  |
| GHRP (listed as Homo sapiens) |  |  |  |  | not a significant competitor |  |
| GPRV (listed as Homo sapiens) |  |  |  |  | to a lesser extent as compared to GPRP |  |
| GPSPAAC (listed as Homo sapiens) [reference compound] |  |  |  |  |  | minimal binding response |
